These results are taken from US9944678B2, “Immunomodulators” (BRISTOL-MYERS SQUIBB COMPANY, priority 2014, dated 2018).

Starred links: 1 amine or outer side, 2 acyl side, 3 side chain; linkers in the order of their positions; H or OH if unused. Positions of bridges follow the written chain, without caps; N, C: chain ends. Non-standard residues stand in square brackets, D forms with d. Residues, ends and D or L forms follow the SMILES beside them. ξ: configuration not given here. X2 = CC[C@H]1C[C@@]1(N[*:1])C(=O)[*:2]; Bta = N[C@@H](Cc1csc2ccccc12)C(=O)O; X3 = C[C@H]1CC1(N[*:1])C(=O)[*:2]; Hyp = O=C(O)[C@@H]1C[C@@H](O)CN1; NMeNle = CCCC[C@H](NC)C(=O)O; NMeA = CN[C@@H](C)C(=O)O; Dab = NCC[C@H](N)C(=O)O; Dap = NC[C@H](N)C(=O)O; Ac3c = NC1(C(=O)O)CC1; Aib = CC(C)(N)C(=O)O; ξC = NC(CS)C(=O)O

For the first series, the target named is T1, PD-1-Ig binding to PD-L1-TVMV-His (PD-L1-His) (Homo sapiens, UniProt Q9NZQ7).
T1 construct: hPDL1(19-239)-TVMV-His; TVMV protease cleavage site (C); made in house; host or cells: HEK293T cells
T1 sequence (Q9NZQ7 with tags, fused parts or gaps): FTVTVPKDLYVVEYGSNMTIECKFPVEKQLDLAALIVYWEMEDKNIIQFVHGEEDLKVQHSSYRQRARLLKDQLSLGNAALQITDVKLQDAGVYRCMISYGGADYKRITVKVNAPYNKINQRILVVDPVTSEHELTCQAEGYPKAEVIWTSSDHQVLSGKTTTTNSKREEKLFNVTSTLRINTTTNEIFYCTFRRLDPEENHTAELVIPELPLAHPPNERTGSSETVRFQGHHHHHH
In words: PD-1/PD-L1 Homogenous Time-Resolved Fluorescence (HTRF) binding assay. Conditions: PD-1-Ig/PD-L1-His binding; numeric values. The source says: The ability of the macrocyclic peptides of the present disclosure to bind to PD-L1 was investigated using a PD-1/PD-L1 Homogenous Time-Resolved Fluorescence (HTRF) binding assay.
Homogenous Time-Resolved Fluorescence (HTRF) Assays of Binding of Soluble PD-1 to Soluble PD-L1. Soluble PD-1 and soluble PD-L1 refers to proteins with carboxyl-end truncations that remove the transmembrane-spanning regions and are fused to heterologous sequences, specifically the Fc portion of the human immunoglobuling G sequence (Ig) or the hexahistidine epitope tag (His). All binding studies were performed in an HTRF assay buffer consisting of dPBS supplemented with 0.1% (w/v) bovine serum albumin and 0.05% (v/v) Tween-20. For the PD-1-Ig/PD-L1-His binding assay, inhibitors were pre-incubated with PD-L1-His (10 nM final) for 15 m in 4 μl of assay buffer, followed by addition of PD-1-Ig (20 nM final) in 1 μl of assay buffer and further incubation for 15 m. PD-L1 fusion proteins from either human, cynomologous macaques, mouse, or other species were used. HTRF detection was achieved using europium crypate-labeled anti-Ig monoclonal antibody (1 nM final) and allophycocyanin (APC) labeled anti-His monoclonal antibody (20 nM final). Antibodies were diluted in HTRF detection buffer and 5 μl was dispensed on top of binding reaction. The reaction was allowed to equilibrate for 30 minutes and signal (665 nm/620 nm ratio) was obtained using an EnVision fluorometer. Additional binding assays were established between PD-1-Ig/PD-L2-His (20 and 5 nM, respectively), CD80-His/PD-L1-Ig (100 and 10 nM, respectively) and CD80-His/CTLA4-Ig (10 and 5 nM, respectively). Binding/competition studies between biotinylated Compound No. 71 and human PD-L1-His were performed as follows. Macrocyclic peptide inhibitors were pre-incubated with PD-L1-His (10 nM final) for 60 minutes in 4 μl of assay buffer followed by addition of biotinylated Compound No. 71 (0.5 nM final) in 1 μl of assay buffer. Binding was allowed to equilibrate for 30 minutes followed by addition of europium crypated labeled Streptavidin (2.5 pM final) and APC-labeled anti-His (20 nM final) in 5 μl of HTRF buffer. The reaction was allowed to equilibrate for 30 m and signal (665 nm/620 nm ratio) was obtained using an EnVision fluorometer.
Recombinant Proteins. Carboxyl-truncated human PD-1 (amino acids 25-167) with a C-terminal human Ig epitope tag [hPD-1 (25-167)-3S-IG] and human PD-L1 (amino acids 18-239) with a C-terminal His epitope tag [hPD-L1(19-239)-tobacco vein mottling virus protease cleavage site (TVMV)-His] were expressed in HEK293T cells and purified sequentially by recombinant Protein A affinity chromatography and size exclusion chromatography. Human PD-L2-His (Sino Biologicals), CD80-His (Sino Biologicals), CTLA4-Ig (RnD Systems) were all obtained through commercial sources.
Ranges are as follows: A=0.10-10 μM; B=0.01-0.099 μM; C=0.004-0.0099 μM.
(TR-FRET usually uses a lanthanide donor and a delayed reading to cut background.)
Turning to `CCCC[C@H]1C(=O)N(C)[C@@H](CCCC)C(=O)N[C@@H](CC(C)C)C(=O)N[C@H](C(=O)NCC(N)=O)CSCC(=O)N[C@@H](Cc2ccc(O)cc2)C(=O)N(C)[C@@H](C)C(=O)N[C@@H](CC(N)=O)C(=O)N2CCC[C@H]2C(=O)NC(C)(C)C(=O)N[C@@H](CC(C)C)C(=O)N2C[C@H](O)C[C@H]2C(=O)N[C@@H](Cc2c[nH]c3ccccc23)C(=O)N[C@@H](CCN)C(=O)N[C@@H](Cc2c[nH]c3ccccc23)C(=O)N1C` [Example 9011] ({CH2CO}-Y[NMeA]NP[Aib]L[Hyp]W[Dab]W[NMeNle][NMeNle]LCG-NH2; thioether N-14), the IC50 was 0.02 µM.

The series is the same for the next values; noted with them: PD-1-Ig/PD-L1-His binding; values given as range classes.
`CCCC[C@H]1C(=O)N(C)[C@@H](CCCC)C(=O)N[C@@H](CC(C)C)C(=O)N[C@H](C(=O)NCC(N)=O)CSCC(=O)N[C@@H](Cc2ccc(O)cc2)C(=O)N(C)[C@@H](C)C(=O)N[C@@H](CC(N)=O)C(=O)N2CCC[C@H]2C(=O)NC2(CC2)C(=O)N[C@@H](CC(C)C)C(=O)N2C[C@H](O)C[C@H]2C(=O)N[C@@H](Cc2c[nH]c3ccccc23)C(=O)N[C@@H](CCN)C(=O)N[C@@H](Cc2c[nH]c3ccccc23)C(=O)N1C` [Example 9012] ({CH2CO}-Y[NMeA]NP[Ac3c]L[Hyp]W[Dab]W[NMeNle][NMeNle]LCG-NH2; thioether N-14) gave an IC50 of 0.01 to 0.099 µM. Consider `CCCC[C@H]1C(=O)N(C)[C@@H](CCCC)C(=O)N[C@@H](CC(C)C)C(=O)N[C@H](C(=O)NCC(N)=O)CSCC(=O)N[C@@H](Cc2ccc(O)cc2)C(=O)N(C)[C@@H](C)C(=O)NC2(CC2)C(=O)N2CCC[C@H]2C(=O)N[C@@H](CN)C(=O)N[C@@H](CC(C)C)C(=O)N2C[C@H](O)C[C@H]2C(=O)N[C@@H](Cc2c[nH]c3ccccc23)C(=O)N[C@@H](CCN)C(=O)N[C@@H](Cc2c[nH]c3ccccc23)C(=O)N1C` [Example 9014] ({CH2CO}-Y[NMeA][Ac3c]P[Dap]L[Hyp]W[Dab]W[NMeNle][NMeNle]LCG-NH2; thioether N-14), for which the concentration for half-maximal inhibition (IC50) is 0.1 to 10 µM. `CCCC[C@H]1C(=O)N(C)[C@@H](CCCC)C(=O)N[C@@H](CCCNC(=N)N)C(=O)NC(C(=O)NCC(N)=O)CSCC(=O)N[C@@H](Cc2ccc(O)cc2)C(=O)N(C)[C@@H](C)C(=O)N[C@@H](CC(N)=O)C(=O)N[C@]2(C[C@@H]2CC)C(=O)N[C@@H](Cc2cnc[nH]2)C(=O)N[C@@H](CC(C)C)C(=O)N2C[C@H](O)C[C@H]2C(=O)N[C@@H](Cc2c[nH]c3ccccc23)C(=O)N[C@@H](CO)C(=O)N[C@@H](Cc2c[nH]c3ccccc23)C(=O)N1C` (stereo partly drawn) [Example 10009] ({CH2CO}-Y[NMeA]N[X2]HL[Hyp]WSW[NMeNle][NMeNle]R[ξC]G-NH2; thioether N-14) returned an IC50 of 0.1 to 10 µM. Same read-out and setting: then `CCCC[C@H]1C(=O)N(C)[C@@H](CCCC)C(=O)N[C@@H](CCCNC(=N)N)C(=O)N[C@H](C(=O)NCC(N)=O)CSCC(=O)N[C@@H](Cc2ccccc2)C(=O)N(C)[C@@H](C)C(=O)N[C@@H](CC(N)=O)C(=O)N2CCC[C@H]2C(=O)N[C@@H](Cc2cnc[nH]2)C(=O)N[C@@H](CC(C)C)C(=O)NC(C)(C)C(=O)N[C@@H](Cc2c[nH]c3ccccc23)C(=O)N[C@@H](CO)C(=O)N[C@@H](Cc2c[nH]c3ccccc23)C(=O)N1C` [Example 1002], with 0.1 to 10 µM; and `CCCC[C@H]1C(=O)N(C)[C@@H](CCCC)C(=O)N[C@@H](CCCNC(=N)N)C(=O)NC(C(=O)NCC(N)=O)CSCC(=O)N[C@@H](Cc2ccc(O)cc2)C(=O)N(C)[C@@H](C)C(=O)N[C@@H](CC(N)=O)C(=O)N2C[C@H](O)C[C@H]2C(=O)N[C@@H](Cc2cnc[nH]2)C(=O)N[C@@H](CC(C)C)C(=O)NC2(C[C@@H]2C)C(=O)N[C@@H](Cc2c[nH]c3ccccc23)C(=O)N[C@@H](CO)C(=O)N[C@@H](Cc2csc3ccccc23)C(=O)N1C` (stereo partly drawn) [Example 10006] ({CH2CO}-Y[NMeA]N[Hyp]HL[X3]WS[Bta][NMeNle][NMeNle]R[ξC]G-NH2; thioether N-14), with 0.1 to 10 µM. Consider `CCCC[C@H]1C(=O)N(C)[C@@H](CCCC)C(=O)N[C@@H](CCCNC(=N)N)C(=O)N[C@H](C(=O)NCC(N)=O)CSCC(=O)N[C@@H](Cc2ccccc2)C(=O)N(C)[C@@H](C)C(=O)N[C@@H](CC(N)=O)C(=O)N2CCC[C@H]2C(=O)N[C@@H](Cc2cnc[nH]2)C(=O)N[C@@H](CC(C)C)C(=O)NC2(CCCC2)C(=O)N[C@@H](Cc2c[nH]c3ccccc23)C(=O)N[C@@H](CO)C(=O)N[C@@H](Cc2c[nH]c3ccccc23)C(=O)N1C` [Example 1001], for which the IC50 was 0.1 to 10 µM.

Compound `CCCC[C@H]1C(=O)N(C)[C@@H](CCCC)C(=O)N[C@@H](CC(C)C)C(=O)N[C@H](C(=O)NCC(N)=O)CSCC(=O)N[C@@H](Cc2ccc(O)cc2)C(=O)N(C)[C@@H](C)C(=O)N[C@@H](CC(N)=O)C(=O)N2CCC[C@H]2C(=O)N[C@@H](CN)C(=O)N[C@@H](CC(C)C)C(=O)N2C[C@H](O)C[C@H]2C(=O)N[C@@H](Cc2c[nH]c3ccccc23)C(=O)NC(C)(C)C(=O)N[C@@H](Cc2c[nH]c3ccccc23)C(=O)N1C` [Example 9007] ({CH2CO}-Y[NMeA]NP[Dap]L[Hyp]W[Aib]W[NMeNle][NMeNle]LCG-NH2; thioether N-14) returned an IC50 of 0.1 to 10 µM.

Test system in the next series: not given
Assay: not given
Conditions: oral formulation ENTOCORT EC, extensive first-pass metabolism; cited from earlier work.
For the compound `CCCC1O[C@@H]2C[C@H]3[C@@H]4CCC5=CC(=O)C=C[C@]5(C)[C@H]4[C@@H](O)C[C@]3(C)[C@]2(C(=O)CO)O1` (stereo partly drawn) [budesonide], the bioavailability entry is “about 10%”.

As a reminder, the IC50 is the point on the concentration scale where inhibition reaches its midpoint.
